# Results from patent US5378725A, “Inhibition of phosphatidylinositol 3-kinase with wortmannin and analogs thereof” (The Arizona Board of Regents, priority 1993, dated 1995).
# Read-outs that look alike come from different tables or passages of the source.
# What was measured:
# [1] = target: T1, purified bovine brain PI 3-kinase (Bos taurus, UniProt P32871); test: Assay of purified PI 3-kinase activity (32P incorporation into phosphatidylinositol, TLC/scintillation); assay type: biochemical; details: bovine brain purified PI 3-kinase
# T1 construct: PI 3-kinase was prepared from bovine brain; from tissue; host or cells: bovine brain
# Protocol: In another, preferred, method, PI 3-kinase was prepared from bovine brain. Two bovine brains (wet weight about 900 g) were obtained from a local slaughterhouse within minutes of slaughter, packed on ice, and homogenized within one hour. Brains were trimmed of excess fat and blood vessels and then homogenized using a Tekmar Tissuemizer (Cincinnati, Ohio) at 4° C. in 20 mM of Tris(pH 8.3) containing 250 mM of sucrose, 6 mM of β-mercaptoethanol, 1 μg/ml of leupeptin, 1 μg/ml of pepstatin A, 0.4 mM of PMSF, and 1 mM of MgCl2.
# Following centrifugation for 60 minutes at 10,000×g, the DH of the supernatant (about 1200 mL) was lowered to 5.75 using dropwise addition of 1M acetic acid at 4° C. After stirring for an additional 15 minutes at 4° C., the solution was centrifuged for 60 minutes at 13,500×g. The supernatant was discarded. Pellets were resuspended in Buffer A (20 mM of Tris, pH 8.3, containing 6 mM of β-mercaptoethanol, 0.1 mM of ethylene glycol-bis(β-aminoethyl ether) N,N,N',N'-tetraacetic acid (EGTA), 1 μg/mL of leupeptin, 1 μg/mL of pepstatin A, and 1 mM of MgCl2), and loaded onto a Fast Flow Q Sepharose column (300 ml) at a flow rate of 5 mL/min at 4° C. After loading, the column was washed with 3 volumes of Buffer A containing 0.1M of KCl and the kinase was then eluted with a linear gradient of Buffer A/0.1M KCl to Buffer A/O.6M KCl at 3 mL/min over 7 volumes.
# Fractions were assayed for PI 3-kinase activity using 10 μL of the fraction and phosphatidylinositol as substrate as described below. […] The PI 3-kinase pool was subjected to a 40% ammonium sulfate precipitation. Following centrifugation (60 minutes at 13,500×g), pellets were resuspended in Buffer B (10 mM of potassium phosphate, pH 7.4, containing 6 mM of β-mercaptoethanol, 1 μg/mL of leupeptin, 1 μg/mL of pepstatin A, and 1 mM of MgCl2), and loaded onto a 50 mL hydroxylapatite column (Calbiochem, Inc., La Jolla, Calif.) at 2.5 mL/minute. The column was washed with 150 mL Buffer B until the A280 baseline reached zero, and the kinase was then eluted with a linear gradient of 10-320 mM of KH2 PO4 at 1 mL/minute over 450 minutes.
# Active fractions were pooled and then loaded at 3 mL/minute onto a MonoS column (8 ml) (Pharmacia, Inc., Piscataway, N.J.) equilibrated in Buffer C (50 mM of MES, pH 6.2, containing 6 mM of β-mercaptoethanol, 0.1 mM of EGTA, 1 μg/mL of leupeptin, 1 μg/mL of pepstatin A, and 1 mM of MgCl2). PI 3-kinase was eluted with a linear gradient of 0-0.4M KCl in Buffer C over 120 minutes. […] Therefore, the MonoS flow-through was concentrated by tangential flow filtration on a Mini-Ultrasette Omega 50 K membrane (Filtron, Inc., Northborough, Mass.) and diluted in Buffer C to lower the conductivity. The material was then reloaded onto the MonoS column using the above conditions. […] Two pools of phosphatidylinositol kinase activity were obtained in the gradient; each was assayed for PI 3-kinase and PI 4-kinase activity.
# Pool I from the MonoS column was diluted with Buffer A and chromatographed on MonoQ (1 ml) and ehted with a gradient of 0-0.4M KCl in Buffer A. The final pool was assayed for PI 3-kinase and PI 4-kinase activity.
# PI 3-kinase activity was measured as previously described by Matter, W. F., et al., Biochemical and Biophysical Research Communications, 186:624-631 (1992).
# [2] = system: PI 4-kinase; test: Effect on PI 4-kinase; assay type: biochemical
# [3] = system: phospholipase C; test: Effect on phospholipase C; assay type: biochemical
# [4] = target: c-src protein tyrosine kinase (Homo sapiens, UniProt P12931); test: Effect on c-src protein tyrosine kinase; assay type: biochemical
# [5] = system: protein kinase C; test: Effect on protein kinase C; assay type: biochemical
# [6] = system: PI 3-kinase in v-sis NIH 3T3 cells; test: Assay of whole cell PI 3-kinase activity (PDGF-stimulated phosphatidylinositol-3-phosphate formation); assay type: cell-based; details: 1.3 μM, 100 ng/mL PDGF, 10 min contact before stimulation
# Protocol: The cells were washed with phosphate-free DMEM and incubated in the same medium containing 0.1% fatty acid free bovine serum, albumin and 0.15 mCi/mL [^32 P]H3 PO4 (ICN Biomedicals, Irvine, Calif.) for 70 minutes. Inhibitor candidates were prepared using the above-stated procedure, and placed in contact with the cells for 10 minutes prior to their stimulation. The cells were stimulated with 100 ng/mL of PDGF for 10 minutes. To measure phosphatidylinositol-3-phosphates in the cells, the medium was removed and the cells washed once with phosphate buffered saline before adding 4 mL/flask of HCl:methanol (1:1 by volume). The cells were scraped from the flasks and total lipids were extracted by the method described by Folch, J., et al., J. Biol. Chem., 226:497-509 (1957). Deacylated lipids were prepared using methylamine via the method described by Clark, N. G., et al., BioChem J., 195: 301-306, (1981), and separated by HPLC using a 10 cm RAC II Partisil 5 SAX column (Whatman, Kent, U.K.) eluted with an NH4 H2 PO4 gradient at a flow of 0.8 mL/minute as described by Auger, K. R., et al., Methods in Inositide Research, pp. 159-166 [Irvine, R. F., Ed., Raven Press, Ltd., New York, N.Y. (1990)]. Detection of the eluting peaks was by a radioactive flow detector (Flo-One Beta, Model A515, Radiomatic Instruments, Meriden, Conn.). […]
# [7] = system: PI 4-kinase; details: Matter, et al.; cited from earlier work
# [8] = system: protein kinase C; details: Matter, et al.; cited from earlier work
# [9] = system: PI 3-kinase; details: Matter, et al.; cited from earlier work
# [10] = IC50 (ng/mL), 10 min preincubation, 20 μM ATP, 3% DMSO
# [11] = IC50, molar value in parentheses, value printed in parentheses beside ng/mL
# [12] = 10 min preincubation, 20 μM ATP, 3% DMSO, read-out: IC50 (ng/mL) (converted)
# T1 sequence (P32871 whole entry): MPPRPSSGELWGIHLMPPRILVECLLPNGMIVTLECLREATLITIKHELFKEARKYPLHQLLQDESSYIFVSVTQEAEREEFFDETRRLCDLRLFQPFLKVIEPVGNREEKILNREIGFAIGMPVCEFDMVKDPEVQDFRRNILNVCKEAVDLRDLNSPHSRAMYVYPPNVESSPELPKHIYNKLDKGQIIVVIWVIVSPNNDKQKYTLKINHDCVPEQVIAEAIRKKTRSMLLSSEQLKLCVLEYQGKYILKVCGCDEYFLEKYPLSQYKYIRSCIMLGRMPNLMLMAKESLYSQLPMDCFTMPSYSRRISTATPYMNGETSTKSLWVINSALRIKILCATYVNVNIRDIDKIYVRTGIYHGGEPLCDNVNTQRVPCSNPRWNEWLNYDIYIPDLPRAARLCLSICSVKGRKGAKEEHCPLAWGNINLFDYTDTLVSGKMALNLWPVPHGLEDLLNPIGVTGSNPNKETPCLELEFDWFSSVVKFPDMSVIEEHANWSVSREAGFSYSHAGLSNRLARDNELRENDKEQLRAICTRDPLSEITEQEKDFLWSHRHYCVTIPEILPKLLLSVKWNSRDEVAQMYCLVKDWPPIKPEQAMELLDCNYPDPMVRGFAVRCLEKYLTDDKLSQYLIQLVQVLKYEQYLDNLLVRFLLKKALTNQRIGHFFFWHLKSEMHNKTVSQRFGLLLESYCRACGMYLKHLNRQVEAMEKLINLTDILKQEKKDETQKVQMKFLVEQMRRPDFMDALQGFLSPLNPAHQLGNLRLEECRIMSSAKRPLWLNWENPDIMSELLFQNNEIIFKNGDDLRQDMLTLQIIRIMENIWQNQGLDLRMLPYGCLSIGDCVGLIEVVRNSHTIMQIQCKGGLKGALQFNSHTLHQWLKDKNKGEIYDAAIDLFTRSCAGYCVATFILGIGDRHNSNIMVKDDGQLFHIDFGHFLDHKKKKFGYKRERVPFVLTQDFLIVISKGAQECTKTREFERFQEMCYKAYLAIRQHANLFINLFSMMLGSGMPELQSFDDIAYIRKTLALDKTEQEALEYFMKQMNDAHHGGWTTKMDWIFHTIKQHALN
# T1 sequence (P23727 whole entry partner): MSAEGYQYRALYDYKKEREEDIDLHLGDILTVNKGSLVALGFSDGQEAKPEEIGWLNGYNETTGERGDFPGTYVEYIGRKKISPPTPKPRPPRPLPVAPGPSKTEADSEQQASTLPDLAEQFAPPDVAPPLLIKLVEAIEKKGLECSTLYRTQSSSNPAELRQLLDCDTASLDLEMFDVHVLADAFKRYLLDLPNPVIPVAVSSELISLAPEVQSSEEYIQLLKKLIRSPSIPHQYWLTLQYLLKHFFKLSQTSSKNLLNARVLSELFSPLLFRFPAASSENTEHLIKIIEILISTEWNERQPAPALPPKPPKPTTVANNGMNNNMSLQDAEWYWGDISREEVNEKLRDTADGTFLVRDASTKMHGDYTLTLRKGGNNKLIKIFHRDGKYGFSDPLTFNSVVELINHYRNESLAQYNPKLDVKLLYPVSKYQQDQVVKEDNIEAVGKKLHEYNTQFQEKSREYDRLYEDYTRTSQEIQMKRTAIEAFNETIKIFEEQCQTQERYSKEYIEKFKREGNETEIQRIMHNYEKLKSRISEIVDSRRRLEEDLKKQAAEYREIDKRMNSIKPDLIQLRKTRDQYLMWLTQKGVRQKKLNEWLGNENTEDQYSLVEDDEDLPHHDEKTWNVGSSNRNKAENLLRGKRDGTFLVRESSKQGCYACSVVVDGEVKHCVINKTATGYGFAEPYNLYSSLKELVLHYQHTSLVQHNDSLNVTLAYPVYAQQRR
# Chain of c-src protein tyrosine kinase (P12931 whole entry): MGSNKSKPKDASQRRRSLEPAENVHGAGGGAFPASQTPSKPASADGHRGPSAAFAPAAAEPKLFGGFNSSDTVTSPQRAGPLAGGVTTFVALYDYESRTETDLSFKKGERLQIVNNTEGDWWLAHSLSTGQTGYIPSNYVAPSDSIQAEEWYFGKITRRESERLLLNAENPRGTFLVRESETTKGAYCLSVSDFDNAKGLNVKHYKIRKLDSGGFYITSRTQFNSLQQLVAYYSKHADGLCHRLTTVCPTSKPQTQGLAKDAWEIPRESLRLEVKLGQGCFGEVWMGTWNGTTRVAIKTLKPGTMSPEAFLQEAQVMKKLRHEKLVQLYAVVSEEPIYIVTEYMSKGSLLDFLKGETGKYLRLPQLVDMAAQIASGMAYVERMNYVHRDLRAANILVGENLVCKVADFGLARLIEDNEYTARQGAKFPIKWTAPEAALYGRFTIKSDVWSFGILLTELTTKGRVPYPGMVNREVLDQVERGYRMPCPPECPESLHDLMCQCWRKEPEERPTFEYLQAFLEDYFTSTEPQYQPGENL
compound,measurement,setting,value
"COC[C@H]1OC(=O)c2coc3c2[C@@]1(C)C1=CC[C@]2(C)C(=O)CC[C@H]2[C@@H]1C3=O [II, Δ9,11-dehydrodesacetoxywortmannin]",IC50,[1]; [10],54 nM
same,IC50,[1]; [11],59 nM
"COC(=O)c1coc2c(O)c3c(c(C)c12)C=C[C@]1(C)C(=O)CC[C@@H]31 [IIIb, opened A-ring methyl ester of wortmannin]",IC50,[1]; [12],4600 nM
"COC[C@H]1OC(=O)c2coc3c2[C@@]1(C)C1=C(C3=O)[C@@H]2CCC(=O)[C@@]2(C)C[C@H]1OC(C)=O [Ia, wortmannin]",IC50,[1]; [10],4.2 nM
same,IC50,[1]; [11],4.2 nM
same,effect on PI 4-kinase,[2],no effect
same,effect on phospholipase C,[3],no effect
same,effect on c-src protein tyrosine kinase,[4],no effect
same,effect on protein kinase C,[5],no effect
same,inhibition of platelet derived growth factor stimulated phosphatidylinositol-3-phosphate formation in whole cells,[6],almost complete inhibition
"COC[C@H]1OC(=O)c2coc3c2[C@@]1(C)C1=C(C3=O)[C@@H]2CCC(=O)[C@@]2(C)CC1 [Ib, 11-desacetoxywortmannin]",IC50,[1]; [12],16.7 nM
same,IC50,"[1]; value printed in parentheses beside ng/mL, read-out: IC50, molar value in parentheses",16.7 nM
O=c1c(O)c(-c2ccc(O)c(O)c2)oc2cc(O)cc(O)c12 [quercetin],inhibition of PI 4-kinase,[7],inhibit
same,inhibition of protein kinase C,[8],inhibit
same,inhibition of PI 3-kinase,[9],inhibit
